{
  "source": "patent US10532066B2",
  "about": "“Surfactant lipids, compositions thereof, and uses thereof” (National Jewish Health, priority 2007, dated 2020)",
  "key": {"[1]": {"tested_on": "differentiated U937 cells", "assay": "LPS-induced TNF-α secretion by differentiated U937 cells", "type": "cell-based, human", "conditions": "LPS 10 ng/ml, 6 h, liposomes; LPS without phospholipid = 100%", "description": "(§1) FIG. 1. Anionic phospholipids inhibit inflammatory mediator production induced by LPS. Liposomes composed of sphingomyelin (SM), phosphatidylethanolamine (PE) dipalmitoyl-phosphatidylcholine ((DPPC), phosphatidylserine (PS), palmitoyl-oleoyl-phosphatidylglycerol (POPG) and phosphatidylinositol (PI) were formed by bath-sonication for 30 min at room temperature. LPS (10 ng/ml) and different concentrations of phospholipids were added to monolayer cultures of differentiated U937 cells (A), or primary rat alveolar macrophages (B). At 6 h after stimulation, media were collected and secreted TNF-α levels were determined in U937 cultures. NO production was determined 24 h after stimulating rat alveolar macrophages. LPS stimulation in the absence of phospholipid was set as 100%. […] The average TNF-α production upon LPS stimulation was (8.0±0.54 ng/ml). The average NO production upon LPS stimulation was 12.17±0.27 μM.\n(§2) FIG. 2. The inhibitory effect of phosphatidylglycerols on LPS-induced inflammatory mediator production is molecular species specific. PG liposomes were formed by bath-sonication for 30 min at room temperature. LPS (10 ng/ml) and different concentrations of PG were added to monolayer cultures of differentiated U937 cells (A) or rat alveolar macrophages (B). Media TNF-α measurements were performed 6 h after stimulation. Media NO measurements were performed 24 h after stimulation. LPS stimulation without PG was set at 100%. The molecular species of PG shown on the graph are 8:0; dioctanoyl-phosphatidylglycerol, 12:0; dilauroyl-phosphatidylglycerol (DLPG), 14:0; dimyristoyl-phosphatidylglycerol (DMPG), 16:0; dipalmitoyl-phosphatidylglycerol (DPPG), 18:0; distearoyl-phosphatidylglycerol, 16:0/18:1; palmitoyl-oleoyl-phosphatidylglycerol (POPG). […] The average TNF-α production upon LPS stimulation was 11.3±0.7 ng/ml. The average NO production upon LPS stimulation was 10.1±0.6 μM.\nFIG. 3. […] Surfactant lipid (SL) and POPG were dried under nitrogen, and hydrated at 37° C. for 1 h. (A) SL and POPG were mixed in organic solvents prior to drying and hydrating and subsequently liposomes were produced. (B) SL and POPG were made as independent populations of liposomes that were subsequently mixed prior to macrophage treatment. 10 ng/ml of LPS and different concentrations of liposome mixtures were added to monolayer cultures of differentiated U937 cells. 6 h after stimulation, media were collected and TNF-α production was determined. LPS stimulation without phospholipid was set as 100%. […] The average TNF-α production upon LPS stimulation was 7.0±0.2 ng/ml.\nU937 cells were induced to differentiate by treatment with 10 nM phorbol myristate acetate (PMA) for 48 h. The cells (1.3×10^5/well) were placed in 96-well plates and further incubated in the absence of PMA for 24 h in RPMI 1640 medium containing 10% BGS. Rat alveolar macrophages (5×10^5/well) were incubated in 24-well plates for 2 h after isolation. The indicated concentration of phospholipids was added to the cultures 30 min before adding LPS. After LPS addition cultures were incubated for 6 h at 37° C. at an atmosphere of 95% air and 5% CO2. At the end of the incubation period the medium was collected and assayed for TNF-α concentrations using an ELISA kit.\nSurfactant lipids were isolated from the bronchioalveolar lavage of Sprague-Dawley rats, 28 days after intratracheal instillation of 25 mg of silica (˜125 mg/kg). Initially, the surfactant was purified by the method of Hawgood et. al. (25) using NaBr density gradient centrifugation. The purified surfactant was extracted with butanol (26) and segregated into butanol-soluble and -insoluble material."}, "[2]": {"tested_on": "primary rat alveolar macrophages", "assay": "LPS-induced NO production by rat alveolar macrophages", "type": "cell-based", "conditions": "LPS 10 ng/ml, 24 h, liposomes; LPS without phospholipid = 100%", "description": "as §1, §2\nRat alveolar macrophages were isolated from bronchoalveolar lavage fluid (BALF) of Sprague-Dawley rats. The lungs were lavaged with pyrogen-free saline, and alveolar macrophages were sedimented by centrifugation at 150×g×5 min. Isolated macrophages were plated at 5×10^5 cells/well in 24-well plates (Falcon) in RPMI 1640 medium containing 10% BGS. The cells were allowed to adhere for 2 h and then used for the experiments after washing with phosphate-buffered-saline (PBS) to remove the unattached cells.\nNitric oxide (NO) accumulation in the supernatant was determined as previously reported (28). Briefly, rat alveolar macrophages were stimulated with LPS (10 ng/ml) or LPS plus phospholipids for 24 h. Culture supernatants (usually […]) were combined with an equal volume of Greiss reagent, and the samples were incubated at room temperature for 10 min before the absorbance was quantified at 550 nm. With the use of a standard curve, the nmol of NO produced were determined and normalized to total cell number in each sample."}, "[3]": {"target": "T1, LBP binding to CD14 (Homo sapiens, UniProt P08571)", "T1 construct": "purchased Cell Sciences Inc. (CD14); R&D systems (LBP)", "T1 sequence (P08571 20-345 limits assumed)": "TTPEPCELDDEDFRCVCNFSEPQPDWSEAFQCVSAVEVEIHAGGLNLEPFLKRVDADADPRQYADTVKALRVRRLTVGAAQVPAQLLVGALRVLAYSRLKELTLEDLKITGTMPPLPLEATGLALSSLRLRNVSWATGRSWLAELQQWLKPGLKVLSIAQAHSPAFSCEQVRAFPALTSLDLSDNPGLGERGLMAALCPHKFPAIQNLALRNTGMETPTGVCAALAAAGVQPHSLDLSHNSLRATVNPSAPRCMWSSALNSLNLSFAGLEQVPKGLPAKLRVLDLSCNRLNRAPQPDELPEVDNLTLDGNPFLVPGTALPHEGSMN", "assay": "Phospholipid competition for LBP-CD14 binding", "conditions": "LBP 1 μg/ml, liposomes 20 μg/ml", "description": "CD14 (2 μg) or sTLR4 (100 ng) in aliquots of 20 μl of buffer B were pipeted onto a 96-well plate, and the solvent evaporated using a warm air dryer. […] The amount of bound LBP or MD-2 was detected using specific antibodies."}},
  "data": [
    {"compound": "CCCCCCCCCCCCCC(=O)OCC(COP(=O)(O)OCC(O)CO)OC(=O)CCCCCCCCCCCCC", "note": "(stereo not shown) [DMPG, dimyristoyl-phosphatidylglycerol]", "values": [
      {"measurement": "LPS-induced TNF-α production", "setting": "[1]", "result": "as potent as POPG"},
      {"measurement": "LPS-induced NO production", "setting": "[2]", "result": "as potent as POPG"}
    ]},
    {"compound": "phosphatidylinositol [PI]", "values": [
      {"measurement": "LPS-induced TNF-α production", "setting": "[1]", "result": "significantly attenuated"},
      {"measurement": "LPS-induced NO production", "setting": "[2]", "result": "significantly attenuated"},
      {"measurement": "reduction of the interaction of LBP with CD14", "setting": "[3]", "result": "not exhibited"}
    ]},
    {"compound": "CCCCCCCC/C=C\\CCCCCCCC(=O)O[C@H](COC(=O)CCCCCCCCCCCCCCC)COP(=O)(O)OCC(O)CO", "note": "(stereo partly shown) [POPG, palmitoyl-oleoyl-phosphatidylglycerol]", "values": [
      {"measurement": "LPS-induced TNF-α production", "setting": "[1]", "result": "significantly attenuated"},
      {"measurement": "LPS-induced NO production", "setting": "[2]", "result": "significantly attenuated"},
      {"measurement": "reduction of the interaction of LBP with CD14", "setting": "[3]", "result": "approximately 40%"}
    ]},
    {"compound": "CCCCCCCCCCCCCCCC(=O)OC[C@H](COP(=O)([O-])OCC[N+](C)(C)C)OC(=O)CCCCCCCCCCCCCCC", "note": "[DPPC, dipalmitoyl-phosphatidylcholine, reference compound]", "values": [
      {"measurement": "LPS-induced TNF-α production", "setting": "[1]", "result": "no significant effect"},
      {"measurement": "LPS-induced NO production", "setting": "[2]", "result": "no significant effect"},
      {"measurement": "reduction of the interaction of LBP with CD14", "setting": "[3]", "result": "not exhibited"}
    ]},
    {"compound": "CCCCCCCCCCCCCCCC(=O)OCC(COP(=O)(O)OCC(O)CO)OC(=O)CCCCCCCCCCCCCCC", "note": "(stereo not shown) [DPPG, dipalmitoyl-phosphatidylglycerol, reference compound]", "values": [
      {"measurement": "LPS-induced TNF-α production", "setting": "[1]", "result": "failed to antagonize"},
      {"measurement": "LPS-induced NO production", "setting": "[2]", "result": "failed to antagonize"}
    ]}
  ]
}
